Values joined by “and” are separate entries in the source; they are usually repeats but may differ in a detail not shown here. Equal values may be shown once. Inconclusive results and toxic doses are left out. Rule for the calls: active = survival T/C of 150% or more; inactive = T/C below 125% in these data.
Test system: CD2F1 mice, L1210 leukemia ip, survival T/C
Test: NCI In Vivo Anticancer Drug Screen. Data for tumor model L1210 Leukemia (intraperitoneal) in CD2F1 (CDF1) mice
Details: higher = longer survival
Summary of the method: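 Mice carrying a transplanted tumor received test compound or vehicle alone. The value is the measurement in the treated group divided by that in the vehicle-treated control group.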

[1] = endpoint: mean survival time, dose: 75.0 mg/kg/injection, schedule: Q01DX001 (ip), vehicle: saline
[2] = endpoint: mean survival time, dose: 150.0 mg/kg/injection, schedule: Q01DX001 (ip), vehicle: saline
[3] = endpoint: mean survival time, dose: 300.0 mg/kg/injection, schedule: Q01DX001 (ip), vehicle: saline
[4] = endpoint: mean survival time, dose: 100.0 mg/kg/injection, schedule: Q04DX003 (ip), vehicle: saline with Tween-80
[5] = endpoint: mean survival time, dose: 200.0 mg/kg/injection, schedule: Q04DX003 (ip), vehicle: saline with Tween-80
[6] = endpoint: mean survival time, dose: 400.0 mg/kg/injection, schedule: Q04DX003 (ip), vehicle: saline with Tween-80
[7] = endpoint: mean survival time, dose: 100.0 mg/kg/injection, schedule: Q04DX003 (ip), vehicle: saline
[8] = endpoint: mean survival time, dose: 100.0 mg/kg/injection, schedule: Q01DX001 (ip), vehicle: saline
[9] = endpoint: mean survival time, dose: 200.0 mg/kg/injection, schedule: Q01DX001 (ip), vehicle: saline
[10] = endpoint: mean survival time, dose: 400.0 mg/kg/injection, schedule: Q01DX001 (ip), vehicle: saline
[11] = endpoint: mean survival time, dose: 100.0 mg/kg/injection, schedule: Q04DX002 (ip), vehicle: saline with Tween-80
[12] = endpoint: mean survival time, dose: 200.0 mg/kg/injection, schedule: Q04DX002 (ip), vehicle: saline with Tween-80
[13] = endpoint: mean survival time, dose: 400.0 mg/kg/injection, schedule: Q04DX002 (ip), vehicle: saline with Tween-80
[14] = endpoint: mean survival time, dose: 100.0 mg/kg/injection, schedule: Q01DX001 (ip), vehicle: saline with Tween-80
[15] = endpoint: mean survival time, dose: 200.0 mg/kg/injection, schedule: Q01DX001 (ip), vehicle: saline with Tween-80
[16] = endpoint: mean survival time, dose: 400.0 mg/kg/injection, schedule: Q01DX001 (ip), vehicle: saline with Tween-80
[17] = endpoint: mean survival time, dose: 100.0 mg/kg/injection, schedule: Q01DX009 (ip), vehicle: saline with Tween-80
[18] = endpoint: mean survival time, dose: 200.0 mg/kg/injection, schedule: Q01DX009 (ip), vehicle: saline with Tween-80

Measured: T/C

O=P(Cc1ccccc1)(Cc1ccccc1)c1ccccc1
inactive: [1] 95 % of control | [2] 93 % of control | [3] 100 % of control

CC12CCC3C(CCC4CC(O)CCC43C)C1CCC2=O (centres undefined)
inactive: [4] 103 % of control | [5] 92 % of control | [6] 97 % of control

CN(C)CC1CCC/C(=C\C=C\c2ccccc2)C1=O (centres undefined)
inactive: endpoint: mean survival time, dose: 12.5 mg/kg/injection, schedule: Q04DX003 (ip), vehicle: Klucel (hydroxypropylcellulose) (HPC) 100 % of control | endpoint: mean survival time, dose: 25.0 mg/kg/injection, schedule: Q04DX003 (ip), vehicle: Klucel (hydroxypropylcellulose) (HPC) 103 % of control | endpoint: mean survival time, dose: 50.0 mg/kg/injection, schedule: Q04DX003 (ip), vehicle: Klucel (hydroxypropylcellulose) (HPC) 94 % of control

CCSC/C(=N\Nc1ccc([N+](=O)[O-])cc1[N+](=O)[O-])c1ccccc1
inactive: [4] 109 % of control | [5] 109 % of control | [6] 102 % of control

O=[N+]([O-])c1ccc(O)c(CCl)c1
inactive: [1] 102 % of control | [2] 93 % of control | [3] 96 % of control

CC(=O)OC1=C(C)C(c2ccc(C)cc2)OC1=O (centres undefined)
inactive: endpoint: mean survival time, dose: 12.5 mg/kg/injection, schedule: Q01DX009 (ip), vehicle: other 101 % of control | endpoint: mean survival time, dose: 25.0 mg/kg/injection, schedule: Q01DX009 (ip), vehicle: other 106 % of control | endpoint: mean survival time, dose: 50.0 mg/kg/injection, schedule: Q01DX009 (ip), vehicle: other 110 % of control | endpoint: mean survival time, dose: 100.0 mg/kg/injection, schedule: Q01DX009 (ip), vehicle: other 104 % of control | endpoint: mean survival time, dose: 200.0 mg/kg/injection, schedule: Q01DX009 (ip), vehicle: other 104 % of control

CCN(CC)CCCC(C)Nc1ncnc(N)c1[N+](=O)[O-] (centres undefined)
inactive: endpoint: mean survival time, dose: 25.0 mg/kg/injection, schedule: Q01DX009 (ip), vehicle: saline 103 % of control | endpoint: mean survival time, dose: 25.0 mg/kg/injection, schedule: Q04DX003 (ip), vehicle: saline 106 % of control | endpoint: mean survival time, dose: 50.0 mg/kg/injection, schedule: Q01DX009 (ip), vehicle: saline 92 % of control | endpoint: mean survival time, dose: 50.0 mg/kg/injection, schedule: Q04DX003 (ip), vehicle: saline 111 % of control | endpoint: mean survival time, dose: 100.0 mg/kg/injection, schedule: Q01DX009 (ip), vehicle: saline 95 % of control | [7] 104 % of control

O=C(N/N=C/c1ccccc1O)c1ccccc1
inactive: endpoint: mean survival time, dose: 100.0 mg/kg/injection, schedule: Q01DX001 (ip), vehicle: Klucel (hydroxypropylcellulose) (HPC) 112 % of control | endpoint: mean survival time, dose: 100.0 mg/kg/injection, schedule: Q01DX009 (ip), vehicle: Klucel (hydroxypropylcellulose) (HPC) 94 % of control | endpoint: mean survival time, dose: 200.0 mg/kg/injection, schedule: Q01DX001 (ip), vehicle: Klucel (hydroxypropylcellulose) (HPC) 105 % of control | endpoint: mean survival time, dose: 200.0 mg/kg/injection, schedule: Q01DX009 (ip), vehicle: Klucel (hydroxypropylcellulose) (HPC) 104 % of control | endpoint: mean survival time, dose: 400.0 mg/kg/injection, schedule: Q01DX001 (ip), vehicle: Klucel (hydroxypropylcellulose) (HPC) 95 % of control | endpoint: mean survival time, dose: 400.0 mg/kg/injection, schedule: Q01DX009 (ip), vehicle: Klucel (hydroxypropylcellulose) (HPC) 102 % of control

COc1ccc(/C=C2/N=C(C)OC2=O)cc1OC(C)=O
inactive: [8] 92 % of control | [9] 93 % of control | [10] 96 % of control

CCCCCCCCCCCCCCP(=O)(O)O
inactive: endpoint: mean survival time, dose: 75.0 mg/kg/injection, schedule: Q01DX001 (ip), vehicle: other 92 % of control | endpoint: mean survival time, dose: 150.0 mg/kg/injection, schedule: Q01DX001 (ip), vehicle: other 98 % of control | endpoint: mean survival time, dose: 300.0 mg/kg/injection, schedule: Q01DX001 (ip), vehicle: other 96 % of control

COC(=O)C1(C)CCC(=O)O1 (centres undefined)
inactive: [11] 98 % of control | [12] 98 % of control | [13] 102 % of control

C[C@]12C=CC(=O)C=C1CC[C@@H]1[C@@H]2CC[C@]2(C)OC(=O)CC[C@@H]12
inactive: endpoint: median survival time, dose: 125.0 mg/kg/injection, schedule: Q01DX009 (sc), vehicle: steriod suspending solution 97 % of control | endpoint: median survival time, dose: 125.0 mg/kg/injection, schedule: Q## X009 (sc), vehicle: steriod suspending solution 97 % of control | endpoint: median survival time, dose: 250.0 mg/kg/injection, schedule: Q01DX009 (sc), vehicle: steriod suspending solution 104 % of control | endpoint: median survival time, dose: 250.0 mg/kg/injection, schedule: Q## X009 (sc), vehicle: steriod suspending solution 104 % of control | endpoint: median survival time, dose: 500.0 mg/kg/injection, schedule: Q01DX009 (sc), vehicle: steriod suspending solution 102 % of control | endpoint: median survival time, dose: 500.0 mg/kg/injection, schedule: Q## X009 (sc), vehicle: steriod suspending solution 102 % of control | endpoint: median survival time, dose: 1000.0 mg/kg/injection, schedule: Q01DX009 (sc), vehicle: steriod suspending solution 102 % of control | endpoint: median survival time, dose: 1000.0 mg/kg/injection, schedule: Q## X009 (sc), vehicle: steriod suspending solution 102 % of control

c1ccc(C2=C(c3ccccc3)OCCO2)cc1
inactive: [14] 110 % of control | [15] 89 % of control | [16] 92 % of control

N#CC(c1ccc(N)cc1)C(CC(=O)c1ccccc1)c1ccccc1 (centres undefined)
inactive: [11] 87 % of control and 95 % of control | [12] 91 % of control | [13] 87 % of control and 95 % of control

C1N2CN3CN1CN(C2)C3.[Cl][Pt]([Cl])[Cl]
inactive: endpoint: mean survival time, dose: 3.13 mg/kg/injection, schedule: Q04DX003 (ip), vehicle: distilled water + Tween-80 103 % of control | endpoint: mean survival time, dose: 6.25 mg/kg/injection, schedule: Q04DX003 (ip), vehicle: distilled water + Tween-80 108 % of control | endpoint: mean survival time, dose: 12.5 mg/kg/injection, schedule: Q04DX003 (ip), vehicle: distilled water + Tween-80 109 % of control | endpoint: mean survival time, dose: 25.0 mg/kg/injection, schedule: Q04DX003 (ip), vehicle: distilled water + Tween-80 108 % of control | endpoint: mean survival time, dose: 50.0 mg/kg/injection, schedule: Q04DX003 (ip), vehicle: distilled water + Tween-80 115 % of control

CSc1nc(NC(C)C)nc(NC(C)C)n1
inactive: endpoint: mean survival time, dose: 50.0 mg/kg/injection, schedule: Q01DX009 (ip), vehicle: saline with Tween-80 117 % of control | [17] 109 % of control | [7] 92 % of control | [18] 111 % of control | endpoint: mean survival time, dose: 200.0 mg/kg/injection, schedule: Q04DX003 (ip), vehicle: saline 103 % of control

CCCC(=O)OC1C2OP(=O)(O)OCC2OC1n1c(=S)[nH]c2c(N)ncnc21 (centres undefined)
inactive: endpoint: mean survival time, dose: 6.25 mg/kg/injection, schedule: Q01DX005 (ip), vehicle: water 93 % of control | endpoint: mean survival time, dose: 12.5 mg/kg/injection, schedule: Q01DX005 (ip), vehicle: water 97 % of control | endpoint: mean survival time, dose: 25.0 mg/kg/injection, schedule: Q01DX005 (ip), vehicle: water 101 % of control | endpoint: mean survival time, dose: 50.0 mg/kg/injection, schedule: Q01DX005 (ip), vehicle: water 93 % of control | endpoint: mean survival time, dose: 100.0 mg/kg/injection, schedule: Q01DX005 (ip), vehicle: water 101 % of control

CCOC(=O)Cc1ccnc(C)c1
inactive: [14] 93 % of control | [17] 100 % of control | [15] 94 % of control | [18] 103 % of control | [16] 96 % of control

CN(C)Cc1ccccc1
inactive: [14] 104 % of control | [15] 110 % of control

O=c1[nH]c(-c2ccccc2)nc(-c2ccc(Cl)cc2)c1CCO
inactive: [17] 95 % of control | [18] 91 % of control | [5] 91 % of control | endpoint: mean survival time, dose: 400.0 mg/kg/injection, schedule: Q01DX009 (ip), vehicle: saline with Tween-80 96 % of control | [6] 86 % of control

OC(CI)C1OCOC2COCOC21 (centres undefined)
inactive: endpoint: mean survival time, dose: 100.0 mg/kg/injection, schedule: Q04DX003 (ip), vehicle: Klucel (hydroxypropylcellulose) (HPC) 102 % of control | endpoint: mean survival time, dose: 200.0 mg/kg/injection, schedule: Q04DX003 (ip), vehicle: Klucel (hydroxypropylcellulose) (HPC) 94 % of control | endpoint: mean survival time, dose: 400.0 mg/kg/injection, schedule: Q04DX003 (ip), vehicle: Klucel (hydroxypropylcellulose) (HPC) 97 % of control

CCOC(=O)C(C(=S)NC)=S(C)C
inactive: endpoint: mean survival time, dose: 100.0 mg/kg/injection, schedule: Q01DX001 (ip), vehicle: other 92 % of control | endpoint: mean survival time, dose: 200.0 mg/kg/injection, schedule: Q01DX001 (ip), vehicle: other 88 % of control | endpoint: mean survival time, dose: 400.0 mg/kg/injection, schedule: Q01DX001 (ip), vehicle: other 105 % of control

N#CC(C#N)=Cc1cc2ccccc2c2ccccc12
inactive: [4] 109 % of control | [5] 97 % of control | [6] 101 % of control

CC(Sc1ccccc1)C(=O)O (centres undefined)
inactive: [8] 98 % of control | [9] 102 % of control | [10] 98 % of control
